Source: ChEMBL document CHEMBL1201862, “PubChem BioAssay data set” (2004)
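48-hour exposure; five concentrations; linearly interpolated endpoints. GI50: concentration for 50% inhibition of growth.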 Calls of active or inactive are those of the source. Cut-off read from the data, not from the text of the source: active = GI50 up to about 1.1 µM and inactive = higher.

Columns and labels:
Test in all cases: NCI-60 cell line screen, 48 h
[1] = tested on: SK-MEL-28
[2] = tested on: OVCAR-3
[3] = tested on: A549
[4] = tested on: CCRF-CEM
[5] = tested on: U-251
[6] = tested on: OVCAR-5
[7] = tested on: MOLT-4
[8] = tested on: NCI-H226
[9] = tested on: A498
[10] = tested on: HCT-116
[11] = tested on: OVCAR-8
[12] = tested on: SF-539
[13] = tested on: DMS-273
[14] = tested on: HT-29
[15] = tested on: HCT-15
[16] = tested on: SN12C
[17] = tested on: SF-268
[18] = tested on: UO-31
[19] = tested on: SNB-19
[20] = tested on: NCI-H460
[21] = tested on: TK-10
[22] = tested on: SNB-75
[23] = tested on: SW-620
[24] = tested on: SK-MEL-5
[25] = tested on: CAKI-1
[26] = tested on: HOP-62
[27] = tested on: K562
[28] = tested on: SK-OV-3
[29] = tested on: DMS-114
[30] = tested on: LXFL 529
[31] = tested on: HOP-92
[32] = tested on: DLD-1
[33] = tested on: SNB-78
[34] = tested on: HL-60
[35] = tested on: HCC 2998
[36] = tested on: SK-MEL-2
[37] = tested on: 786-0
[38] = tested on: OVCAR-4
[39] = tested on: ACHN
[40] = tested on: SF-295
[41] = tested on: M14
[42] = tested on: LOX IMVI
[43] = tested on: SR
[44] = tested on: NCI-H522
[45] = tested on: RPMI-8226
[46] = tested on: RXF 393
[47] = tested on: NCI-H23
[48] = tested on: M19-MEL
[49] = tested on: IGROV-1
[50] = tested on: KM12
[51] = tested on: Malme-3M
[52] = tested on: UACC-62
[53] = tested on: UACC-257
[54] = tested on: COLO 205
[55] = tested on: DU-145
[56] = tested on: Hs-578T
[57] = tested on: MCF7
[58] = tested on: PC-3
[59] = tested on: BT-549
[60] = tested on: MDA-N
[61] = tested on: T47D
[62] = tested on: MDA-MB-435
[63] = tested on: EKVX
[64] = tested on: XF498
[65] = tested on: NCI/ADR-RES
[66] = tested on: KM-20L2

Measured: GI50

CC1=CCC[C@@]2(C)C(CC[C@@H]2C(C)/C=C/C(C)C)c2ccc(cc2C(=O)O)C[C@@H](O)CC1 (stereo not given in full)
inactive: [1] 14.7 µM | [2] 13.7 µM | [3] 6.14 µM | [4] 5.09 µM | [5] 3.94 µM | [6] 16.4 µM | [7] 11.6 µM | [8] 18.5 µM | [9] 20.2 µM | [10] 5.21 µM | [11] 15.2 µM | [12] 8.55 µM | [13] 14.4 µM | [14] 5.13 µM | [16] 16 µM | [17] 14.2 µM | [18] 15.7 µM | [19] 5.2 µM | [20] 7.01 µM | [21] 12.5 µM | [22] 13.8 µM | [23] 14.9 µM | [24] 3.59 µM | [25] 17 µM | [26] 20 µM | [27] 9.89 µM | [28] 18.1 µM | [29] 18.5 µM | [30] 11.6 µM | [31] 14.4 µM | [32] 3.67 µM | [33] 16.1 µM | [34] 9.79 µM | [35] 9.93 µM | [36] 17.1 µM | [37] 14.6 µM | [38] 12.1 µM | [39] 6.37 µM | [40] 9.27 µM | [41] 16.9 µM | [42] 4.55 µM | [43] 13.5 µM | [44] 13.5 µM | [45] 3.63 µM | [46] 15.9 µM | [47] > 10 µM | [48] 12.7 µM | [49] 12.3 µM | [50] 11 µM | [51] 15.7 µM | [52] 10.9 µM | [53] 16.6 µM
5.07 µM: [15]

CCOC(=O)N[C@H]1CCc2cc(OC)c(OC)c(OC)c2-c2ccc(SC)c(=O)cc21
active: [1] 0.746 µM | [54] < 0.01 µM | [2] < 0.01 µM | [3] < 0.01 µM | [4] < 0.01 µM | [5] < 0.01 µM | [55] < 0.01 µM | [6] 0.317 µM | [7] < 0.01 µM | [56] < 0.01 µM | [8] 0.163 µM | [9] < 0.01 µM | [10] < 0.01 µM | [57] < 0.01 µM | [11] < 0.01 µM | [12] < 0.01 µM | [13] < 0.01 µM | [14] < 0.01 µM | [16] < 0.0287 µM | [58] < 0.01 µM | [17] < 0.01 µM | [18] < 0.0117 µM | [19] 0.108 µM | [20] < 0.01 µM | [21] 1 µM | [22] < 0.0434 µM | [23] < 0.01 µM | [59] < 0.01 µM | [24] < 0.01 µM | [25] < 0.01 µM | [26] < 0.01 µM | [27] < 0.01 µM | [60] < 0.01 µM | [31] < 0.01 µM | [32] < 0.01 µM | [33] < 0.01 µM | [34] < 0.01 µM | [35] < 0.01 µM | [36] < 0.01 µM | [37] < 0.01 µM | [39] < 0.01 µM | [40] < 0.01 µM | [41] < 0.01 µM | [42] < 0.01 µM | [62] < 0.01 µM | [43] < 0.01 µM | [44] < 0.01 µM | [45] < 0.01 µM | [46] < 0.01 µM | [47] < 0.01 µM | [64] < 0.01 µM | [49] < 0.01 µM | [50] < 0.01 µM | [51] < 0.01 µM | [65] 0.0228 µM | [52] < 0.01 µM | [66] < 0.01 µM
inactive: [61] > 54.6 µM | [38] 16 µM | [63] 29.9 µM | [53] 16.6 µM
< 0.01 µM: [15]
